# Test results taken from patent publication US20130079370A1, “Method for the Inhibition of Deubiquitinating Activity” (priority 2011, published 2013).
# How the values were obtained:
# HCT116 cells = type: cell-based; conditions: human
# From the text: These findings indicate that high molecular weight ubiquitin substrate complexes accumulating as a result of DUB inhibition can generate strong cytotoxicity that is insensitive to Bcl-2 over-expression. [table]
# [1] = test system: orthotopic breast carcinomas (4T1); test: Orthotopic breast carcinoma (4T1) model; type: in vivo, BALB/c mice; conditions: 2.5 mg/kg i.p., 1 day on/3 days off
# [2] = test system: HCT-116 Bcl2+ colon carcinoma xenografts; test: HCT-116 Bcl2+ colon carcinoma xenografts in nude mice, tumor onset; type: in vivo; conditions: 5 mg/kg 4-5 times weekly for 3 weeks; log-rank P=0.0136; vs vehicle
# Method: Animal experiments were conducted in full accordance with Swedish governmental statutory regulations on animal welfare under permission from local ethical committees. Animals were housed at a max of five per cage and provided with sterile water and food ad libitum. All mice were monitored and weighed daily. For the head and neck carcinoma model a 100-μl cell suspension containing 1×10^6 FaDu cells was injected subcutaneously into the right rear flank of the animals. After injection, tumor growth was measured daily with calipers and the tumor volume calculated by the formula L×W^2×0.44. When tumors had grown to a size of approximately 200 mm^3 (Day 0) mice were randomized to receive either vehicle (n=10) or b-AP15 5 mg/kg by subcutaneous injection s.c. (n=15) daily. […] Nineteen days after malignant cell injection all of the mice were killed and histopathological manifestations of liver, ovary (target organs for this model of tumor) were evaluated and compared between groups. […]
# SCID mice bearing FaDu human tumor xenografts were randomized at tumor take (200 mm^3) and treated by daily subcutaneous injection with either vehicle (n=10) or 5 mg kg^−1 b-AP15 (n=15) for 10 days. […] Mice were treated with vehicle (n=6) or 5 mg kg^−1 b-AP15 (n=6) 4-5 times weekly for 3 weeks and monitored for tumor onset (log-rank, P=0.0136, hazard ratio=7.9). […]
# [3] = test system: FaDu head and neck carcinoma xenografts; test: FaDu head and neck carcinoma xenografts in SCID mice; type: in vivo
# Method: In vitro proteasome activity assays were performed in black 96-well microtitier plates using human 20S proteasome (Boston Biochem) in reaction buffer (25 mM Hepes, 0.5 mM EDTA, 0.03% SDS) with Suc-LLVY-AMC, Z-LLE-AMC or Boc-LRRAMC used as substrates for proteasome activity. De-ubiquitinase activity assays were performed with human 19S RP (Boston Biochem) with ubiquitin-AMC as substrate. For FaDu xenograft studies a 100-μl-cell suspension containing 1×10^6 cells was injected subcutaneously into the flank of SCID. Upon tumor take mice were randomized into control or treatment groups and administered with 5 mg kg^−1 b-AP15 or vehicle. In vivo levels of apoptosis and cell death were determined from the detection of caspase cleaved and total levels of cytokeratin-18 in plasma using M30 Apoptosense® and M65 ELISA®s assays (Peviva). […]
# Animal experiments were conducted in full accordance with Swedish governmental statutory regulations on animal welfare under permission from local ethical committees. […] All mice were monitored and weighed daily. […] After injection, tumor growth was measured daily with calipers and the tumor volume calculated by the formula L×W^2×0.44. […] Nineteen days after malignant cell injection all of the mice were killed and histopathological manifestations of liver, ovary (target organs for this model of tumor) were evaluated and compared between groups. […]
compound,measurement,setting,value
"C=CC(=O)N1C/C(=C\c2ccc([N+](=O)[O-])cc2)C(=O)/C(=C/c2ccc([N+](=O)[O-])cc2)C1 [b-AP15, (3E,5E)-3,5-bis[(4-nitrophenyl)methylidene]-1-(prop-2-enoyl)piperidin-4-one]",Fold induction DNAJB1 (Hsp40B1),HCT116 cells,22 fold
same,Fold induction HSPA1B,HCT116 cells,21 fold
same,difference in weight at the start and the endpoint between control and treated animals,[1],+5.8%
same,"hazard ratio, disease free survival",[2],7.9
same,"treated/control tumor volume, T/C","[3]; 5 mg/kg s.c. daily for 10 days, p=<0.001",0.4
same,difference in weight at the start and the endpoint between control and treated animals,[3]; FaDu xenograft,−1.3%
